In data set [1] the target is T1, KCNQ2 homotetramer channel (Homo sapiens, UniProt O43526).
T1 construct: expressed in transfected cells; host or cells: CHO-K1
The experiment in a line: KCNQ2 channel dose-response curve in CHO-K1 cells transfected with KCNQ2 plasmid. Type of data set: cell-based. The protocol:
(§1) The culture medium for Chinese hamster oocytes (CHO-K1) (Culture Collection of Chinese Academy of Sciences): 50/50 DMEM/F-12 (Cellgro, Manassas, Va.), added with 10% fetal bovine serum (FBS) (Gibco, Australia) and 2 mM L-glutamic acid (Invitrogen). Expression of KCNQ channels: 24 h before transfection, CHO-K1 spreaded on a dish with a diameter of 60 mm. Lipofectamine 2000™ agent (Invitrogen) was used for Transfection according to the protocol thereof. GFP (green fluorescent protein) was cotransfected to be used as a indication of successful converting into KCNQ plasmid.
(§2) Whole-cell voltage-clamp recording was performed on an Axopatch-200B amplifier (Molecular Devices, Sunnyvale, Calif.) at room temperature. The electrode was made by drawing borosilicate glass capillary (World Precision Instruments, Sarasota, Fla.). The electric resistance of the electrode filled with an intracellular fluid is 3 to 5 MΩ. The composition of the intracellular fluid (1 L) was as follows: 145 mM KCl(Sigma), 1 mM MgCl2(Sigma), 5 mM EGTA(Sigma), 10 mM HEPES(Sigma) and 5 mM MgATP(Sigma) (pH was adjusted to 7.3 with KOH). During the recording, an extracellular fluid was continuously perfused by using a BPS perfusion system (ALA Scientific Instruments, Westburg, N.Y.). The composition of the extracellular fluid (1 L) was as follows: 140 mM NaCl(Sigma), 5 mM KCl(Sigma), 2 mM CaCl2(Sigma), 1.5 mM MgCl2(Sigma), 10 mM HEPES(Sigma) and 10 mM glucose(Sigma) (pH was adjusted to 7.4 with NaOH). Electric signal was filtered at 1 kHz and further converted into digital signal by using pClamp 9.2 software (Molecular Devices, Sunnyvale, Calif.) in DigiData 1322A. Series resistors compensate 60 to 80%. Up to date, multivoltage scheme was generally adopted, wherein the clamp voltage was set at −80 mV, stimulating voltage was a gradient voltage from −90 mV to 60 mV with interval of 10 mV, and the stimulating time for each voltage was 2000 ms.
(§3) The experimental procedure was the same as that in Electrophysiological Example 1. […]

Data set [2] deals with T2, KCNQ2/3 heterotetramer channel (Homo sapiens, UniProt O43525+O43526).
T2 construct: expressed in transfected cells; host or cells: CHO-K1
The experiment in a line: KCNQ2/3 heterotetramer channel dose-response curve in CHO-K1 cells cotransfected with KCNQ2 and KCNQ3 plasmids. Type of data set: cell-based. The protocol: as §1, §2, §3

A further data set concerns KCNQ potassium channel. The experiment in a line: Whole-cell voltage-clamp recording in CHO-K1 cells transfected with KCNQ plasmid. Type of data set: cell-based. Conditions: for I/I0: current enhancement factor, −10 mV testing voltage, compound concentration 10 μM, >1 activating, <1 inhibiting; for ΔV1/2: shift of V1/2, negative sign = left-ward shift of current activation curve, compound 10 μM, CHO-K1 cells. The protocol: The culture medium for Chinese hamster oocytes (CHO-K1) (Culture Collection of Chinese Academy of Sciences): 50/50 DMEM/F-12 (Cellgro, Manassas, Va.), added with 10% fetal bovine serum (FBS) (Gibco, Australia) and 2 mM L-glutamic acid (Invitrogen). […] Lipofectamine 2000™ agent (Invitrogen) was used for Transfection according to the protocol thereof. GFP (green fluorescent protein) was cotransfected to be used as a indication of successful converting into KCNQ plasmid.
as §2, with “The composition of the intracellular fluid (1 L) was as follows: 145 mM KCl(Sigma), 1 mM MgCl2(Sigma), 5 mM EGTA(Sigma), 10 mM HEPES(Sigma) and 5 mM MgATP(Sigma) (pH was adjusted to 7.3 with KOH).” left out, “Electric signal was filtered at 1 kHz and further converted into digital signal by using pClamp 9.2 software (Molecular Devices, Sunnyvale, Calif.) in DigiData 1322A.” left out
V1/2 is the voltage at which 50% of cells were activated, ΔV1/2 is the shift amount of V1/2, negative sign (−) represents a left-ward shift of the current activation curve. I/I0 represents the current enhancement factor, wherein, I0 is the maximum induced current produced under stimulation of −10 mV testing voltage after administrating cells with blank extracellular fluid, I is the maximum induced current produced under stimulation of −10 mV testing voltage after administrating the drug (the compound concentration was 10 μM), I/I0>1 represents activating activity, and I/I0<1 represents inhibiting activity. N is the number of tested cells. NT represents non-tested.

The nature of data set [3]: Rotarod experiment, motor coordination ability (acute neurotoxicity). Type of data set: in vivo, KM mice. As to conditions: both sexes, KM, mouse, in vivo; mice, oral perfusion, Rotarod 30 mins after administration; read-out: TD50 (50% acute neurotoxicity dose). The protocol:
YLS-4C Rotarod system was used in the experiment, wherein the diameter of the rod was 3 cm and the rotate speed was set at 6 rpm. Healthy KM mice (SPF level) were selected, wherein male and female were equal, the body weight was 18 to 22 g. One day before experiment, the mice were place on the rotarod for training and screening. The tail tip of mice was held to make them creep on the rotarod during the training. […] The mice that jumped on the rotarod or griped the rotarod were weed out. In addition, three time periods were set with 1 min for each. […] The qualified mice were randomly caged according to the gender, and allowed to eat and drink freely.
On the day of the experiment, each compound to be tested was freshly formulated by the same method as described in MES experiment. If the compound was not sufficiently suspended, the suspension was further mixed by ultrasonication for 20 min so as to make the compound sufficiently suspended. […] 30 mins after administration, Rotarod experiment was performed and the experiment parameters were the same as the above. The number of mice that fell off from the rorarod was recorded, and the influence of each compound on motor coordination ability of mice was analyzed. The curve for dose of each compound verse motor deficit (percentage) of mice for each compound was obtained according to the analysis of Graphpad Prism 5 software and was shown in FIG. 4.
In general terms: Falling from the rotarod earlier than controls is read as motor impairment.

Molecules are shown by their SMILES. Structures can show the parent of a compound that is named as a salt.

These results are taken from patent US10316008B2, “KCNQ potassium channel agonist, and preparation method therefor and use thereof” (SHANGHAI INSTITUTE OF MATERIA MEDICA, CHINESE ACADEMY OF …, priority 2014, dated 2019).

T1 sequence (O43526 whole entry): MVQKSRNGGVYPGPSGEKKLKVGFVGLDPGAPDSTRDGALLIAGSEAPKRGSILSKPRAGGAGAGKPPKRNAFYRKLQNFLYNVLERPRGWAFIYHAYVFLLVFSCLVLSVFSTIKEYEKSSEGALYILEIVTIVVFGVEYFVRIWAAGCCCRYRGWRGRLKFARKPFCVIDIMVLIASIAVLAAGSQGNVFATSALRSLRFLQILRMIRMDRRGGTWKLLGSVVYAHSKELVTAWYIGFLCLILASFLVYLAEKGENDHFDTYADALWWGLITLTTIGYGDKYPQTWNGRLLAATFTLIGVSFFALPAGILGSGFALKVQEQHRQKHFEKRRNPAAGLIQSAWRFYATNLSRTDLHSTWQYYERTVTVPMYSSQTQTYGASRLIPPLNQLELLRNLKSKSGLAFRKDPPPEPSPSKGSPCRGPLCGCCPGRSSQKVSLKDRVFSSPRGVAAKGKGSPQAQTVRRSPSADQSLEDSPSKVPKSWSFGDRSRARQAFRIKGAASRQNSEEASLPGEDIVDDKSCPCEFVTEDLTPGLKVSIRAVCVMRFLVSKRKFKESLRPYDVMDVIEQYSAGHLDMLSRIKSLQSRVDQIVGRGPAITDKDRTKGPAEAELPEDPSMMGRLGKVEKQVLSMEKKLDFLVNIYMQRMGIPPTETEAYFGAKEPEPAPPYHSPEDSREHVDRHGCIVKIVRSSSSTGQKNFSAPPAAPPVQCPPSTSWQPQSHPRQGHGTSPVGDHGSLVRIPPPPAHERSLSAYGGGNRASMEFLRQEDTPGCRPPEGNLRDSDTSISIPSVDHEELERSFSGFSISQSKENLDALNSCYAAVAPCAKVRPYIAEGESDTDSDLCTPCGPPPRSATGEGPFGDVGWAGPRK

The term EC50 denotes the concentration that produces a half-maximal response. With `C#CCN(Cc1ccc(F)cc1)c1cc(C)c(NC(=O)OC)c(C)c1` [Compound K43, methyl 4-(N-parafluorobenzyl-N-propargyl-amino)-2,6-dimethylphenylaminoformate], the EC50 in data set [1] (FIG. 1, Boltzmann fit, read-out: EC50) is 0.00153 µM; in data set [2] (FIG. 2, Boltzmann fit), 0.049 µM. Moreover, in data set [1] (fold of RTG), the “agonistic activity on KCNQ2 homotetramer channel relative to RTG” value is listed as “more than 800 times”. The “agonistic activity on KCNQ2/3 heterotetramer channel relative to K21” value in data set [2] (fold of K21) is reported as at least 20 times. In addition, in data set [2] (fold of RTG), the “agonistic activity on KCNQ2/3 heterotetramer channel relative to RTG” value is listed as at least 30 times.
A word on the TD50: it is the dose at which the toxic effect under study appears in half of the subjects. For the molecule `C#CCN(Cc1ccc(F)cc1)c1ccc(NC(=O)OC)c(C)c1` [K41•HCl], in the data set on KCNQ potassium channel, the I/I0 was 4.8 ± 0.73 and the ΔV1/2 is reported as −23.28 ± 1.37 mV. For the same molecule, the TD50 at 30 min in data set [3] came to 103 mg/kg.
For `C#CCN(Cc1ccc(F)cc1)c1cc(C)c(NC(=O)OC)c(C)c1.Cl` [K43•HCl, methyl 4-(N-parafluorobenzyl-N-propargyl-amino)-2,6-dimethylphenylaminoformate hydrochloride] the same measures were 4.75 ± 1.29, −38.52 ± 1.67 mV and 152 mg/kg.
